The subject of the assay is normal, non-HF ovine model. In words: Change in right and left ventricle contractility after injection, with max(dP/dt) pressure as surrogate and heartbeat-by-heartbeat RV/LV correlation. Format: in vivo. Particulars: max(dP/dt) used as surrogate for contractility. The source says:
The correlation was a heartbeat-by-heartbeat analysis. Pressure measurements, taken by a Millar catheter comprising a MEMS pressure sensor, in units of max(dP/dt) was used as a surrogate for contractility. The first change, a dobutamine injection, provided a very high contractility increase greater than 500%. The average correlation between right ventricle contractility and left ventricle contractility was very good at 0.91, where 1.00 is a perfect correlation. Accordingly, if a subject is given a dobutamine injection, measuring changes to right ventricle contractility can provide accurate information about changes to left ventricle contractility. The first change was repeated three times. The second change, calcium injection at 5 mL, provided a contractility increase of about 20%. […] The average correlation between right ventricle contractility and left ventricle contractility using a Millar (MEMS) sensor on a catheter was very good at 0.91. The average correlation between right ventricle contractility and left ventricle contractility using a fluid-filled lumen of a Swan-Ganz catheter in communication with an external pressure sensor was also very good at 0.87. Accordingly, under certain circumstances such as measurement of an animal (normal, non-HF ovine model) model, if a subject is given a calcium injection, measuring changes to right ventricle contractility with a MEMS sensor or a fluid filled lumen can provide accurate information about changes to left ventricle contractility.

calcium [Calcium Injection]: the “Contractility % Increase” value was around 20%. In addition, the “Contractility % Increase” value (listed as calcium injection) is “about 20%”.

As for `CC(CCc1ccc(O)cc1)NCCc1ccc(O)c(O)c1` (stereo not shown) [Dobutamine Injection, dobutamine], the “Contractility % Increase” value is above 500%. Under “listed as dobutamine injection”, the “Contractility % Increase” value is listed as “greater than 500%”.
